# Data published in patent publication US20250282871A1, “PHARMACEUTICAL COMBINATION AND USE THEREOF” (TIANJIN LIPOGEN TECHNOLOGY CO., LTD, priority 2021, published 2025).
# Legend:
# [1] = test system: colorectal carcinoma MC38; test: Example 1: subcutaneous xenograft tumor model of colorectal carcinoma MC38 in mice, RB0005 and 2′,3′-cGAMP; type: in vivo, mouse
# Protocol: C57/BL6JNifdc mouse, female, body weight of 17-22 g, aged 6-8 weeks, SPF grade, purchased from Beijing Vital River Laboratory Animal Technology Co., Ltd. [Experimental Animal Quality Certificate No.: SCXK (Beijing) 2016-0006].
# (§1) Tumor cells were cultured and passaged, cells were collected at the logarithmic phase, and formulated into a concentration of (1.0×10^7) per milliliter of cell suspension with 0.1 ml (with a cell number of 1.0×10^6) being injected into the right flank of the mice, the tumor grew to a diameter of about 5 mm within about 10 days, and the model was successfully established, they were randomly divided into 8 groups with 8 mice per group.
# (§2) Trend of changes in body weight and tumor volume of mice, survival rate of mice, and inhibitory rate of anatomical tumor weight.
# (§3) Drug interaction coefficient: CDI(CI)=AB/A*B. AB is the ratio of the combination group of two drugs to the control group, as calculated based on the anatomical tumor weight. A or B is the ratio of single drug group to control group.
# After successfully establishing a subcutaneous xenograft tumor model of colorectal carcinoma MC38 in mice, it was randomly grouped with 6-8 mice per group. The mice were administered once every two days, with a total of three times followed by observation until 15 days.
# [2] = test system: colorectal carcinoma MC38; test: Example 2: humanized PD-1 subcutaneous xenograft tumor model of colorectal carcinoma MC38, RB0004 and 2′,3′-cGAMP; type: in vivo, mouse; details: 2′,3′-cGAMP 3 mg/kg i.t.; RB0004 10 mg/kg i.p.; every other day
# Protocol: as §1, §2
# After successfully establishing a humanized PD-1 subcutaneous xenograft tumor model of colorectal carcinoma MC38 in mice, they were randomly grouped with 8 mice per group and administered once every two days.
# [3] = test system: colorectal carcinoma MC38; test: Example 3: xenograft tumor model of colorectal carcinoma MC38, RB0005 and different doses of 2′,3′-cGAMP; type: in vivo, mouse; details: single drug i.t.: RB0005 1 mg/kg; 2′,3′-cGAMP 1, 3.16, 10 mg/kg
# Protocol: as §1, §2
# After successfully establishing a subcutaneous xenograft tumor model in mice, they were randomly grouped with 8 mice per group and administered once every two days.
# [4] = test system: colorectal carcinoma MC38; test: Example 5: humanized CD274 cell subcutaneous xenograft tumor model of colorectal carcinoma MC38, routes and dosage forms; type: in vivo, mouse; details: every other day, 3 times
# Protocol: as §1, §2, §3
# After successfully establishing a humanized CD274 cell subcutaneous xenograft tumor model of colorectal carcinoma MC38 in mice, they were randomly grouped with 6-8 mice per group and administered once every two days, a total of 3 times.
# [5] = test system: colorectal carcinoma MC38; test: Example 6: humanized PD-1 subcutaneous xenograft tumor model of colorectal carcinoma MC38, RB0004 and 2′,3′-cGAMP single dosage form; type: in vivo, mouse; details: intratumor injection; RB0004 10 mg/kg, 2′,3′-cGAMP 1 mg/kg; every other day, 3 times
# Protocol: as §1, §2, §3
# (§4) After successfully establishing a humanized PD-1 subcutaneous xenograft tumor model of colorectal carcinoma MC38 in mice, they were randomly grouped with 6-8 mice per group and administered once every two days, a total of 3 times.
# [6] = test system: colorectal carcinoma MC38; test: Example 7.2.1: MC38 subcutaneous xenograft, marketed PD-1 inhibitors and 2′,3′-cGAMP; type: in vivo, mouse; details: intratumor injection; PD-1 antibody 10 mg/kg, 2′,3′-cGAMP 1 mg/kg; every other day, 3 times
# Protocol: as §1, §2, §3
# (§5) After successfully establishing a subcutaneous xenograft tumor model of colorectal carcinoma MC38 in mice, they were randomly grouped with 6-8 mice per group and administered once every two days, a total of 3 times.
# [7] = test system: colorectal carcinoma MC38; test: Example 7.2.2: MC38 subcutaneous xenograft, PD-L1 inhibitor Durvalumab and 2′,3′-cGAMP; type: in vivo, mouse; details: intratumor injection, 1 mg/kg each, every other day, 3 times
# Protocol: as §1, §2, §3, §5
# [8] = test system: colorectal carcinoma MC38; test: Example 7.2.3: MC38 subcutaneous xenograft, PD-L1 inhibitor Tecentriq or RB0005 and 2′,3′-cGAMP; type: in vivo, mouse; details: intratumor injection, 1 mg/kg each, every other day, 3 times
# Protocol: as §1, §2, §5
# [9] = test system: colorectal carcinoma MC38; test: Example 9: MC38 xenograft, 2′,3′-cGAMP administered firstly, RB0005 after 48 hours; type: in vivo, mouse; details: 2′,3′-cGAMP 1 mg/kg i.t. Day 1, 3, 5; RB0005 1 mg/kg i.p. Day 3, 5, 7
# Protocol: as §1, §2, §3, §4
# breast carcinoma 4T1 = test: Example 11: humanized CD274 cell subcutaneous xenograft tumor model of breast carcinoma 4T1 in BALBc mice; type: in vivo; details: intratumor injection, 1 mg/kg each
# Protocol: as §1, §2, §3
# After successfully establishing a humanized CD274 cell subcutaneous xenograft tumor model of breast carcinoma 4T1 in BALBc mice, they were randomly grouped with 6-8 mice per group and administered once every two days, a total of 3 times.
# melanoma B16 = test: Example 12: humanized PD-1 subcutaneous xenograft tumor model of melanoma B16; type: in vivo, mouse; details: intratumor injection, RB0004 10 mg/kg, 2′,3′-cGAMP 0.1 mg/kg; for TGI %: day 7
# Protocol: as §1
# After successfully establishing a humanized PD-1 subcutaneous xenograft tumor model of melanoma B16 in mice, they were randomly grouped with 6-8 mice per group and administered once every two days, a total of 3 times.
# lung carcinoma LLC-1 = test: Example 13: humanized PD-1 subcutaneous xenograft tumor model of lung carcinoma LLC-1; type: in vivo, mouse; details: intratumor injection; RB0004 10 mg/kg, 2′,3′-cGAMP 0.1 mg/kg; every other day, 3 times
# Protocol: as §1, §3
# After successfully establishing a humanized PD-1 subcutaneous xenograft tumor model of lung carcinoma LLC-1 in mice, they were randomly grouped with 6-8 mice per group and administered once every two days, a total of 3 times.
compound,measurement,setting,value
"Nc1nc2c(ncn2[C@@H]2O[C@@H]3COP(=O)(O)O[C@H]4[C@@H](O)[C@H](n5cnc6c(N)ncnc65)O[C@@H]4COP(=O)(O)O[C@@H]2[C@@H]3O)c(=O)[nH]1 [2′,3′-cGAMP]",inhibition of tumor growth,"[1]; i.t. 1 mg/kg, anatomical tumor weight vs negative control P<0.01, P<0.001",can significantly inhibit the growth of tumor
same,survival rates of mice at the endpoint of the experiment,"[1]; intratumor injection, 1 mg/kg each drug, every other day, 3 times, death = tumor volume >2000 mm^3",75%
same,inhibition of tumor growth,[2],can inhibit the growth of tumor
same,inhibition of tumor growth,[3],can inhibit the growth of tumor
same,Tumor Weight,"[4]; intraperitoneal injection, 1 mg/kg (each)",3.48 g
same,Tumor Weight,"[4]; intratumor injection, 1 mg/kg each",1.84 g
same,Tumor Weight,[5],0.84 g
same,Tumor Weight,[6],0.98 g
same,Tumor Weight,[7],1.74 g
same,Tumor Weight,[8],0.9 g
same,Tumor Weight,[9],1.30 g
same,survival rate at the endpoint of the experiment,breast carcinoma 4T1,66.7%
same,Tumor Weight,"breast carcinoma 4T1; every other day, 3 times",0.63 g
same,Day 7-Tumor volume (mm^3),melanoma B16,578.8 mm^3
same,TGI %,melanoma B16,59.0%
same,TGI %,melanoma B16; listed as cGAMP,59%
same,TGI %,lung carcinoma LLC-1,47%
"Toripalimab: marketed PD-1 monoclonal antibody; G9 of Example 7.2.1, called TERRE in b443 [reference compound]",IRTW % (tumor weight inhibitory rate),[6],49.7%
same,Tumor Weight,[6],0.92 g
Tecentriq: marketed PD-L1 inhibitor,IRTW % (tumor weight inhibitory rate),[8],62.4%
same,Tumor Weight,[8],0.7 g
Sintilimab: marketed PD-1 monoclonal antibody [reference compound],IRTW % (tumor weight inhibitory rate),[6],3.9%
same,Tumor Weight,[6],1.47 g
"Durvalumab: marketed PD-L1 inhibitor, anti PD-L1 antibody",IRTW % (tumor weight inhibitory rate),[7],27.7%
same,Tumor Weight,[7],2.42 g
